Reference: EP0326329B1, “Quinazoline derivatives useful as insecticides” (Dow AgroSciences LLC, priority 1988, dated 1989)

Test system: Pseudoperonospora cubensis (downy mildew)
Assay: Greenhouse Test 1, foliar spray fungicide screen (DOWN MDEW), host squash
Type: in vivo
Conditions: disease control rating, 400 ppm (+++ at 100 ppm)

SMILES | DOWN MDEW
CC(C)c1ccc(CCCCOc2ncnc3ccccc23)cc1 [Example 168, 4-[4-[4-(i-propyl)phenyl]butoxy]quinazoline] | ++ (++ = 90-100% control at 400 ppm)
CCOc1ccc(CCOc2ncnc3c(F)cccc23)cc1 [Example 170, 4-[2-(4-ethoxyphenyl)ethoxy]-8-fluoroquinazoline] | +++ (+++ = 90-100% control at 100 ppm)
Clc1ccc2c(NCCc3cccc(Oc4ccccc4)c3)ncnc2c1 [Example 171, 7-chloro-N-[2-(3-phenoxyphenyl)ethyl]-4-quinazolinamine] | +++ (+++ = 90-100% control at 100 ppm)
CC(C)(C)c1ccc(CCOc2nc(C(Cl)(Cl)Cl)nc3ccccc23)cc1 [Example 172, 2-(trichloromethyl)-4-[2-[4-(t-butyl)phenyl]ethoxy]quinazoline] | - (- = 0-19% control at 400 ppm)
c1ccc(-c2cccc(CCOc3ncnc4ccccc34)c2)cc1 [Example 173, 4-[2-(1,1'-biphenyl)-3-ylethoxy]quinazoline] | + (+ = 20-89% control at 400 ppm)

Test system: melon aphids (Aphis gossypii Glover)
Assay: Mite/insect screen, sprayed squash cotyledons (MA)
Type: in vivo
Conditions: Aphis gossypii, percent mortality; spray rate 200 ppm; read-out: MA RESULTS %
Method in brief: (§1)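 Acetone/alcohol (50:50) + emulsifier blends 23 g/L and 13 g/L; water dilution to test concs. Spray both leaf surfaces to runoff, dry 1 h. For armyworm, 2 excised uninfested leaves into Petri dish with larvae. Readout: % mortality, phytotoxicity.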

SMILES | mortality at 200 ppm [%]
CC(C)c1ccc(CCCCOc2ncnc3ccccc23)cc1 [Example 168, 4-[4-[4-(i-propyl)phenyl]butoxy]quinazoline] | 0
CCOc1ccc(CCOc2ncnc3c(F)cccc23)cc1 [Example 170, 4-[2-(4-ethoxyphenyl)ethoxy]-8-fluoroquinazoline] | 80
Clc1ccc2c(NCCc3cccc(Oc4ccccc4)c3)ncnc2c1 [Example 171, 7-chloro-N-[2-(3-phenoxyphenyl)ethyl]-4-quinazolinamine] | 80
CC(C)(C)c1ccc(CCOc2nc(C(Cl)(Cl)Cl)nc3ccccc23)cc1 [Example 172, 2-(trichloromethyl)-4-[2-[4-(t-butyl)phenyl]ethoxy]quinazoline] | 40
c1ccc(-c2cccc(CCOc3ncnc4ccccc34)c2)cc1 [Example 173, 4-[2-(1,1'-biphenyl)-3-ylethoxy]quinazoline] | 80

Same assay, conditions: Aphis gossypii, percent mortality; spray rate 400 ppm; read-out: MA RESULTS %

SMILES | mortality at 400 ppm [%]
CC(C)c1ccc(CCCCOc2ncnc3ccccc23)cc1 [Example 168, 4-[4-[4-(i-propyl)phenyl]butoxy]quinazoline] | 80
CCOc1ccc(CCOc2ncnc3c(F)cccc23)cc1 [Example 170, 4-[2-(4-ethoxyphenyl)ethoxy]-8-fluoroquinazoline] | 100
Clc1ccc2c(NCCc3cccc(Oc4ccccc4)c3)ncnc2c1 [Example 171, 7-chloro-N-[2-(3-phenoxyphenyl)ethyl]-4-quinazolinamine] | 80
CC(C)(C)c1ccc(CCOc2nc(C(Cl)(Cl)Cl)nc3ccccc23)cc1 [Example 172, 2-(trichloromethyl)-4-[2-[4-(t-butyl)phenyl]ethoxy]quinazoline] | 0
c1ccc(-c2cccc(CCOc3ncnc4ccccc34)c2)cc1 [Example 173, 4-[2-(1,1'-biphenyl)-3-ylethoxy]quinazoline] | 0

Test system: Southern corn rootworm (Diabrotica undecimpuctata howardi Barber)
Assay: Mite/insect screen, soil treatment (CRW)
Type: in vivo
Conditions: Diabrotica; percent mortality; soil treatment, CRW rate 12.00 ppm; read-out: CRW RESULTS %
Method in brief: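 Compounds dissolved in acetone/alcohol (50:50) with Toximul R/S emulsifiers, diluted with water. Soil (15 g, with presoaked corn seed) treated with 1 mL test solution, dried 6–12 h, then five 2–3 instar larvae added; held at 23°C. Percent mortality and phytotoxicity scored after standard exposure periods.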

SMILES | mortality at 12 ppm [%]
CC(C)c1ccc(CCCCOc2ncnc3ccccc23)cc1 [Example 168, 4-[4-[4-(i-propyl)phenyl]butoxy]quinazoline] | 0
CCOc1ccc(CCOc2ncnc3c(F)cccc23)cc1 [Example 170, 4-[2-(4-ethoxyphenyl)ethoxy]-8-fluoroquinazoline] | 0
Clc1ccc2c(NCCc3cccc(Oc4ccccc4)c3)ncnc2c1 [Example 171, 7-chloro-N-[2-(3-phenoxyphenyl)ethyl]-4-quinazolinamine] | 0
CC(C)(C)c1ccc(CCOc2nc(C(Cl)(Cl)Cl)nc3ccccc23)cc1 [Example 172, 2-(trichloromethyl)-4-[2-[4-(t-butyl)phenyl]ethoxy]quinazoline] | 100
c1ccc(-c2cccc(CCOc3ncnc4ccccc34)c2)cc1 [Example 173, 4-[2-(1,1'-biphenyl)-3-ylethoxy]quinazoline] | 0

Same assay, conditions: Diabrotica; percent mortality; soil treatment, CRW rate 24.00 ppm; read-out: CRW RESULTS %

SMILES | mortality at 24 ppm [%]
CC(C)c1ccc(CCCCOc2ncnc3ccccc23)cc1 [Example 168, 4-[4-[4-(i-propyl)phenyl]butoxy]quinazoline] | 0
CCOc1ccc(CCOc2ncnc3c(F)cccc23)cc1 [Example 170, 4-[2-(4-ethoxyphenyl)ethoxy]-8-fluoroquinazoline] | 0
Clc1ccc2c(NCCc3cccc(Oc4ccccc4)c3)ncnc2c1 [Example 171, 7-chloro-N-[2-(3-phenoxyphenyl)ethyl]-4-quinazolinamine] | 0
CC(C)(C)c1ccc(CCOc2nc(C(Cl)(Cl)Cl)nc3ccccc23)cc1 [Example 172, 2-(trichloromethyl)-4-[2-[4-(t-butyl)phenyl]ethoxy]quinazoline] | 0
c1ccc(-c2cccc(CCOc3ncnc4ccccc34)c2)cc1 [Example 173, 4-[2-(1,1'-biphenyl)-3-ylethoxy]quinazoline] | 0

Test system: southern armyworm (Spodopetra eridania Cramer)
Assay: Mite/insect screen, sprayed squash leaves (SAW)
Type: in vivo
Conditions: Spodoptera eridania, percent mortality; spray rate 200 ppm; read-out: SAW RESULTS %
Method in brief: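 Compounds were dissolved in 50:50 acetone/alcohol containing sulfonate/nonionic emulsifier blends (23 g and 13 g per liter) and diluted with water to test concentrations. Leaves were sprayed on both surfaces to runoff and dried for one hour. Percent mortality and phytotoxicity were scored after standard exposure periods.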

SMILES | mortality at 200 ppm [%]
CC(C)c1ccc(CCCCOc2ncnc3ccccc23)cc1 [Example 168, 4-[4-[4-(i-propyl)phenyl]butoxy]quinazoline] | 0
CCOc1ccc(CCOc2ncnc3c(F)cccc23)cc1 [Example 170, 4-[2-(4-ethoxyphenyl)ethoxy]-8-fluoroquinazoline] | 0
Clc1ccc2c(NCCc3cccc(Oc4ccccc4)c3)ncnc2c1 [Example 171, 7-chloro-N-[2-(3-phenoxyphenyl)ethyl]-4-quinazolinamine] | 0
CC(C)(C)c1ccc(CCOc2nc(C(Cl)(Cl)Cl)nc3ccccc23)cc1 [Example 172, 2-(trichloromethyl)-4-[2-[4-(t-butyl)phenyl]ethoxy]quinazoline] | 0
c1ccc(-c2cccc(CCOc3ncnc4ccccc34)c2)cc1 [Example 173, 4-[2-(1,1'-biphenyl)-3-ylethoxy]quinazoline] | 0

Same assay, conditions: Spodoptera eridania, percent mortality; spray rate 400 ppm; read-out: SAW RESULTS %

SMILES | mortality at 400 ppm [%]
CC(C)c1ccc(CCCCOc2ncnc3ccccc23)cc1 [Example 168, 4-[4-[4-(i-propyl)phenyl]butoxy]quinazoline] | 0
CCOc1ccc(CCOc2ncnc3c(F)cccc23)cc1 [Example 170, 4-[2-(4-ethoxyphenyl)ethoxy]-8-fluoroquinazoline] | 100
Clc1ccc2c(NCCc3cccc(Oc4ccccc4)c3)ncnc2c1 [Example 171, 7-chloro-N-[2-(3-phenoxyphenyl)ethyl]-4-quinazolinamine] | 0
CC(C)(C)c1ccc(CCOc2nc(C(Cl)(Cl)Cl)nc3ccccc23)cc1 [Example 172, 2-(trichloromethyl)-4-[2-[4-(t-butyl)phenyl]ethoxy]quinazoline] | 0
c1ccc(-c2cccc(CCOc3ncnc4ccccc34)c2)cc1 [Example 173, 4-[2-(1,1'-biphenyl)-3-ylethoxy]quinazoline] | 0

Test system: Pyricularia oryzae (rice blast)
Assay: not given
Type: in vivo
Conditions: disease control rating, foliar spray, host rice; 400 ppm (+++ at 100 ppm)

SMILES | RICE BLAST
CC(C)c1ccc(CCCCOc2ncnc3ccccc23)cc1 [Example 168, 4-[4-[4-(i-propyl)phenyl]butoxy]quinazoline] | +++ (+++ = 90-100% control at 100 ppm)
CCOc1ccc(CCOc2ncnc3c(F)cccc23)cc1 [Example 170, 4-[2-(4-ethoxyphenyl)ethoxy]-8-fluoroquinazoline] | +++ (+++ = 90-100% control at 100 ppm)
Clc1ccc2c(NCCc3cccc(Oc4ccccc4)c3)ncnc2c1 [Example 171, 7-chloro-N-[2-(3-phenoxyphenyl)ethyl]-4-quinazolinamine] | +++ (+++ = 90-100% control at 100 ppm)
CC(C)(C)c1ccc(CCOc2nc(C(Cl)(Cl)Cl)nc3ccccc23)cc1 [Example 172, 2-(trichloromethyl)-4-[2-[4-(t-butyl)phenyl]ethoxy]quinazoline] | - (- = 0-19% control at 400 ppm)
c1ccc(-c2cccc(CCOc3ncnc4ccccc34)c2)cc1 [Example 173, 4-[2-(1,1'-biphenyl)-3-ylethoxy]quinazoline] | +++ (+++ = 90-100% control at 100 ppm)

Test system: Twospotted spider mites (Tetranychus urticae Koch)
Assay: Mite/insect screen, sprayed squash cotyledons (SM)
Type: in vivo
Conditions: Tetranychus urticae, percent mortality; spray rate 200 ppm; read-out: SM RESULTS %
Method in brief: as §1

SMILES | mortality at 200 ppm [%]
CC(C)c1ccc(CCCCOc2ncnc3ccccc23)cc1 [Example 168, 4-[4-[4-(i-propyl)phenyl]butoxy]quinazoline] | 0
CCOc1ccc(CCOc2ncnc3c(F)cccc23)cc1 [Example 170, 4-[2-(4-ethoxyphenyl)ethoxy]-8-fluoroquinazoline] | 20
Clc1ccc2c(NCCc3cccc(Oc4ccccc4)c3)ncnc2c1 [Example 171, 7-chloro-N-[2-(3-phenoxyphenyl)ethyl]-4-quinazolinamine] | 20
CC(C)(C)c1ccc(CCOc2nc(C(Cl)(Cl)Cl)nc3ccccc23)cc1 [Example 172, 2-(trichloromethyl)-4-[2-[4-(t-butyl)phenyl]ethoxy]quinazoline] | 0
c1ccc(-c2cccc(CCOc3ncnc4ccccc34)c2)cc1 [Example 173, 4-[2-(1,1'-biphenyl)-3-ylethoxy]quinazoline] | 0

Same assay, conditions: Tetranychus urticae, percent mortality; spray rate 400 ppm; read-out: SM RESULTS %

SMILES | mortality at 400 ppm [%]
CC(C)c1ccc(CCCCOc2ncnc3ccccc23)cc1 [Example 168, 4-[4-[4-(i-propyl)phenyl]butoxy]quinazoline] | 0
CCOc1ccc(CCOc2ncnc3c(F)cccc23)cc1 [Example 170, 4-[2-(4-ethoxyphenyl)ethoxy]-8-fluoroquinazoline] | 100
Clc1ccc2c(NCCc3cccc(Oc4ccccc4)c3)ncnc2c1 [Example 171, 7-chloro-N-[2-(3-phenoxyphenyl)ethyl]-4-quinazolinamine] | 40
CC(C)(C)c1ccc(CCOc2nc(C(Cl)(Cl)Cl)nc3ccccc23)cc1 [Example 172, 2-(trichloromethyl)-4-[2-[4-(t-butyl)phenyl]ethoxy]quinazoline] | 0
c1ccc(-c2cccc(CCOc3ncnc4ccccc34)c2)cc1 [Example 173, 4-[2-(1,1'-biphenyl)-3-ylethoxy]quinazoline] | 0

Test system: Erysiphe graminis tritici (powdery mildew)
Assay: Greenhouse Test 1, foliar spray fungicide screen (POWD MDEW), host wheat
Type: in vivo
Conditions: disease control rating, 400 ppm (+++ at 100 ppm)

SMILES | POWD MDEW
CC(C)c1ccc(CCCCOc2ncnc3ccccc23)cc1 [Example 168, 4-[4-[4-(i-propyl)phenyl]butoxy]quinazoline] | +++ (+++ = 90-100% control at 100 ppm)
CCOc1ccc(CCOc2ncnc3c(F)cccc23)cc1 [Example 170, 4-[2-(4-ethoxyphenyl)ethoxy]-8-fluoroquinazoline] | +++ (+++ = 90-100% control at 100 ppm)
Clc1ccc2c(NCCc3cccc(Oc4ccccc4)c3)ncnc2c1 [Example 171, 7-chloro-N-[2-(3-phenoxyphenyl)ethyl]-4-quinazolinamine] | +++ (+++ = 90-100% control at 100 ppm)
CC(C)(C)c1ccc(CCOc2nc(C(Cl)(Cl)Cl)nc3ccccc23)cc1 [Example 172, 2-(trichloromethyl)-4-[2-[4-(t-butyl)phenyl]ethoxy]quinazoline] | - (- = 0-19% control at 400 ppm)
c1ccc(-c2cccc(CCOc3ncnc4ccccc34)c2)cc1 [Example 173, 4-[2-(1,1'-biphenyl)-3-ylethoxy]quinazoline] | ++ (++ = 90-100% control at 400 ppm)

Test system: Puccinia recondita tritici (leaf rust)
Assay: Greenhouse Test 1, foliar spray fungicide screen (LEAF RUST), host wheat
Type: in vivo
Conditions: disease control rating, 400 ppm (+++ at 100 ppm)

SMILES | LEAF RUST
CC(C)c1ccc(CCCCOc2ncnc3ccccc23)cc1 [Example 168, 4-[4-[4-(i-propyl)phenyl]butoxy]quinazoline] | + (+ = 20-89% control at 400 ppm)
CCOc1ccc(CCOc2ncnc3c(F)cccc23)cc1 [Example 170, 4-[2-(4-ethoxyphenyl)ethoxy]-8-fluoroquinazoline] | +++ (+++ = 90-100% control at 100 ppm)
Clc1ccc2c(NCCc3cccc(Oc4ccccc4)c3)ncnc2c1 [Example 171, 7-chloro-N-[2-(3-phenoxyphenyl)ethyl]-4-quinazolinamine] | +++ (+++ = 90-100% control at 100 ppm)
CC(C)(C)c1ccc(CCOc2nc(C(Cl)(Cl)Cl)nc3ccccc23)cc1 [Example 172, 2-(trichloromethyl)-4-[2-[4-(t-butyl)phenyl]ethoxy]quinazoline] | - (- = 0-19% control at 400 ppm)
c1ccc(-c2cccc(CCOc3ncnc4ccccc34)c2)cc1 [Example 173, 4-[2-(1,1'-biphenyl)-3-ylethoxy]quinazoline] | + (+ = 20-89% control at 400 ppm)

Test system: Botrytis cinerea (gray mold)
Assay: Greenhouse Test 1, foliar spray fungicide screen (GRAY MOLD), host grape berries
Type: in vivo
Conditions: disease control rating, 400 ppm (+++ at 100 ppm)

SMILES | GRAY MOLD
CC(C)c1ccc(CCCCOc2ncnc3ccccc23)cc1 [Example 168, 4-[4-[4-(i-propyl)phenyl]butoxy]quinazoline] | - (- = 0-19% control at 400 ppm)
CCOc1ccc(CCOc2ncnc3c(F)cccc23)cc1 [Example 170, 4-[2-(4-ethoxyphenyl)ethoxy]-8-fluoroquinazoline] | - (- = 0-19% control at 400 ppm)
Clc1ccc2c(NCCc3cccc(Oc4ccccc4)c3)ncnc2c1 [Example 171, 7-chloro-N-[2-(3-phenoxyphenyl)ethyl]-4-quinazolinamine] | - (- = 0-19% control at 400 ppm)
CC(C)(C)c1ccc(CCOc2nc(C(Cl)(Cl)Cl)nc3ccccc23)cc1 [Example 172, 2-(trichloromethyl)-4-[2-[4-(t-butyl)phenyl]ethoxy]quinazoline] | - (- = 0-19% control at 400 ppm)
c1ccc(-c2cccc(CCOc3ncnc4ccccc34)c2)cc1 [Example 173, 4-[2-(1,1'-biphenyl)-3-ylethoxy]quinazoline] | - (- = 0-19% control at 400 ppm)
